Nine compounds from patent US12137691B2, “Method for treating plant seed” (RIJK ZWAAN ZAADTEELT EN ZAADHANDEL B.V., priority 2018, dated 2024) can be followed below.

In one test the test system is fungal growth. The experiment in a line: Reducing fungal growth on plant seedlings and plants (general statement). The format is in vivo. The settings on record: general statement in the description, no test details.
In test [1] the test system is Pythium irregulare isolate 779-2010. Description: Germination of hot water treated spinach seed and survival of seedlings in soil inoculated with Pythium irregulare. The class given is in vivo. As to conditions: for effect on the health of the growing plants: coating with only vitamin C (175 or 350 μg per seed). Here is the method:
A solution of an iron salt, such as for instance Fe(II)SO4, and vitamin C in water is prepared by stirring of the chemicals until a clear, colorless solution is obtained.
A rotary coater is charged with seeds and the iron salt with vitamin C solution is added to the seeds via a spinning disk.
The seeds are dried after coating at 25° C./35 RH until the moisture in the seed is equal to the moisture of the seed before treatment with the iron salt solution.
The effect of the iron salt solution prepared in Example 1 on both germination and survival against Pythium is investigated on hot water treated spinach seeds of the variety Mandril. A suitable protocol for the hot water treatment is described in Extension Factsheet Ohio State University; Sally A. Miller and Melanie L Lewis Ivey; “Hot Water Treatment of Vegetable Seeds to Eradicate Bacterial Plant Pathogens in Organic Production Systems”.
The hot water treated spinach seeds were coated with an Fe(II)SO4 coating supplemented with vitamin C. Two different concentrations of Fe(II)SO4 and vitamin C in the coating solution were used: 1 μg Fe(II)SO4 per seed and 1.1 molar equivalents (Meq.) vitamin C, and 250 μg Fe(II)SO4 per seed and 1.1 Meq. vitamin C. As a control, hot water treated seeds without coating and untreated seeds were used.
Seeds were sown in trays. Germination of the seeds was assessed in trays without any inoculum. The effect of the coating on the survival of seedlings was assessed in trays inoculated with Pythium irregulare isolate 779-2010.
(§1) Trays without the inoculum were prepared by mixing+/−10 L of sowing soil with 1 L of tap water in white trays. In total, 117 sowing holes were made in the trays with a press. To prevent any interaction between treatments, only 1 treatment per tray was sown. For each treatment, 3 replicates of 117 seeds were sown. The seeds were topped with two cups (diameter 12 cm) of sowing soil containing 5 grams of inoculum media. Trays were placed in a controlled climate cell at 20° C., LID->14/10 and a RH of 60%. The number of germinated seeds was counted at 7 days, and the amount of surviving seedlings was counted 7 and 14 days after sowing and inoculation. Trays were physically separated from trays containing Pythium inoculum, to prevent cross-contamination.
The inoculum was prepared by growing Pythium irregulare on fresh V8 plates for 3 days at 28° C. After incubation, the spores and mycelium were harvested by adding 20 ml of sterile PBS to the plate and scraping it with a sterile spatula. This inoculum was added to the sowing soil.
as §1, with “with” for “without the”, “treatment 3,” for “treatment, 3”, “(mixed thoroughly in a bucket before topping off).” for “media.”, “inoculation.” for “inoculation. Trays were physically separated from trays containing Pythium inoculum, to prevent cross-contamination.”
The experiment of Example 2 was repeated with the following modifications:
the spinach seed used are of the varieties Platypus and Meerkat […]

The subject of test [2] is Rhizoctonia isolate AU 14/243. Description: In vitro growth inhibition on PDA agar plates with imbedded coated spinach seeds, Rhizoctonia. The class given is cell-based. Here is the method:
FIG. 4A is a schematic picture of an with Rhizoctonia-infected agar plate (1) comprising untreated seeds (2) and seeds coated with 500 μg/seed Fe(II)SO4 (3). Plates were inoculated with Rhizoctonia in the center of the plates (4). The growth of Rhizoctonia was measured after 1 day, 2 days, and 4 days post-inoculation (dpi).
(§2) PDA agar plates were prepared in which spinach seeds of the variety Platypus coated with 250 μg Fe(II)SO4 per seed and 1.1 Meq. vitamin C, 500 μg Fe(II)SO4 per seed and 1.1 Meq. vitamin C, or 500 μg Fe(II)SO4 per seed, were imbedded and inoculated with Rhizoctonia isolate AU 14/243 or Fusarium oxysporum isolate MAFF103063.

In test [3] the test system is Fusarium oxysporum isolate MAFF103063. Description: In vitro growth inhibition on PDA agar plates with imbedded coated spinach seeds, Fusarium. The class given is cell-based. Here is the method:
FIG. 4B is a schematic picture of an with Fusarium-infected agar plate (1) comprising untreated seeds (2) and seeds coated with 500 μg/seed Fe(II)SO4 (3). The growth of Fusarium was measured after 2 days, 4 days, and 7 days post-inoculation (dpi).
as §2

The test system of a further test is P. irregulare. The experiment in a line: Cornsalad seed sown in soil inoculated with P. irregulare, healthy seedlings. The format is in vivo, Pythium irregulare. As to conditions: 500 μg Fe(II)SO4 per seed, no vitamin C, 7, 11, 17 and 24 days after sowing. Here is the method:
FIG. 7B is a graph showing the effect of hot water treatment of cornsalad seeds, and subsequent treatment with 500 μg/seed of Fe(II)SO4. The effect is expressed in the percentage of seedlings that are still alive and healthy 7, 11, 17 and 24 days after sowing in soil inoculated with P. irregulare.
The experiment was also performed on the cornsalad seed when sown in soil inoculated with P. irregulare, prepared as described in Example 2. The percentage of healthy seedlings was determined 7, 11, 17 and 24 days after sowing.

Test [4] relates to damping-off. Description: Beetroot seed sown in a field known to suffer from damping-off, healthy seedlings. As to conditions: beetroot variety Zeppo, 500 μg Fe(II)SO4 per seed, no vitamin C, 14 and 21 days after sowing. The class given is in vivo. Here is the method: FIG. 6 is a graph showing the effect of treatment of seeds of the beetroot variety Zeppo with 500 μg/seed of Fe(II)SO4. The effect is expressed in the number of seedlings that are still alive and healthy 14 and 21 days after sowing.
Seed of the beetroot variety Zeppo was coated with 500 μg/Fe(II)SO4 per seed as described in Example 1, except that no vitamin C was added. The seed was sown in a field known to suffer from damping-off. The number of healthy seedlings was determined 14 days and 21 days after sowing.

Test [5] concerns damping-off. Description: Cornsalad seed sown in soil from a field known to suffer from damping-off, healthy seedlings. The class given is in vivo. As to conditions: 500 μg Fe(II)SO4 per seed, no vitamin C, 7, 11, 17 and 24 days after sowing. Here is the method:
FIG. 7A is a graph showing the effect of hot water treatment of cornsalad seeds, and subsequent treatment with 500 μg/seed of Fe(II)SO4. The effect is expressed in the percentage of seedlings that are still alive and healthy 7, 11, 17 and 24 days after sowing in soil known to suffer from damping-off.
Cornsalad seed was coated with 500 μg/Fe(II)SO4 per seed as described in Example 1, except that no vitamin C was added. The seed was sown in soil from a field known to suffer from damping-off. The percentage of healthy seedlings was determined 7, 11, 17 and 24 days after sowing.

[6] abbreviates: 4 days post inoculation, 250 μg Fe(II)SO4 per seed and 1.1 Meq. vitamin C, or 500 μg Fe(II)SO4 per seed alone.
Where [7] appears, read: Platypus seed, 250 μg Fe(II)SO4 per seed and 1.1 Meq. vitamin C, or 500 μg Fe(II)SO4 per seed alone.

Consider `[Br-].[Br-].[Fe+2]` [Iron(II)bromide], for which, in the test on fungal growth, the “effects in reducing fungal growth on the plant seedlings and plants” value (“effects in reducing fungal growth” below) was “good effects”.
On the same count and under the same terms, then `O=S(=O)([O-])[O-].O=S(=O)([O-])[O-].O=S(=O)([O-])[O-].[Fe+3].[Fe+3]` [iron(III)sulfate], with “good effects”.
Same read-out and setting: then `[Br-].[Br-].[Br-].[Fe+3]` [iron(III)bromide], with “good effects”; and `O=S(=O)([O-])[O-].O=S(=O)([O-])[O-].[Fe+2].[NH4+].[NH4+]` [iron(II)ammonium sulfate], with “good effects”; and `O=S(=O)([O-])[O-].O=S(=O)([O-])[O-].[Fe+3].[NH4+]` [iron(III)ammonium sulfate], with “good effects”.
Take `O=C1O[C@H]([C@@H](O)CO)C(O)=C1O` [vitamin C, reference compound]: the “effect on the health of the growing plants” value in test [1] (spinach variety Meerkat, hot water treated) is listed as “not observed”; in test [1] (spinach variety Platypus, hot water treated), “some effect”.
On to `O=S(=O)([O-])[O-].[Fe+2]` [Fe(II)SO4, iron(II)sulfate], for which, in test [2] (setting [6]), the “growth of the Rhizoctonia isolate over the plate” value is listed as “the isolate covered the whole plate”. Moreover, the “inhibition of Rhizoctonia growth (weaker when compared to 500 μg Fe(II)SO4 and vitamin C)” value in test [2] (setting [7]) was “Inhibition was also observed”. Also, in test [2] (after 4 days post-inoculation, 500 μg/seed Fe(II)SO4, not around untreated seeds), the “zone of inhibition around the coated seeds, Rhizoctonia” value is on record as “zone of inhibition (5) is still visible”. Further, the “effects in reducing fungal growth” value in the test on fungal growth was “good effects”. In addition, in test [1] (spinach varieties Finwhale and Mandril, hot water treated, 50, 100, 150, 200 and 250 μg Fe(II)SO4 per seed), the “dose-effect response (seedlings alive and healthy 14 days after sowing)” value is reported as “linear dose-effect response”. The “doses effective to increase the germination and survival of hot-water treated seed” value in test [1] (spinach varieties Finwhale and Mandril, dose per seed, dose to match untreated seeds depends on variety and/or batch) was not below 50 µg. Further, the “effect on the health of the plants” value in test [1] (spinach varieties Platypus and Meerkat, hot water treated, 250 or 500 μg Fe(II)SO4 per seed, with or without 1.1 Meq. vitamin C) is “positive effect”. The “growth of the Fusarium isolate over the plate” value in test [3] (setting [6]) was “the isolate covered the whole plate”. Also, the “inhibition of Fusarium growth (weaker when compared to 500 μg Fe(II)SO4 and vitamin C)” value in test [3] (setting [7]) is on record as “Inhibition was also observed”. Besides, the “zone of inhibition around the coated seeds, Fusarium” value in test [3] (after 7 days post-inoculation, 500 μg/seed Fe(II)SO4, not around untreated seeds) is reported as “zone of inhibition (5) is still visible”. Moreover, the “protection of cornsalad against damping-off (healthy seedlings)” value in the test with P. irregulare and in the test on damping-off [5] was “protects cornsalad against damping-off” in each case. For the same compound, the “protection of beetroot against damping-off (healthy seedlings)” value in the test with damping-off [4] is listed as “protects beetroot against damping-off”.
Take `[Cl][Fe]([Cl])[Cl]` [iron(III)chloride]: the “effects in reducing fungal growth” value in the test with fungal growth is “good effects”.
On the same count and under the same terms, the value for `[Cl][Fe][Cl]` [iron(II)chloride] was “good effects”.
